Measurements as given in US6710090B2, “Inhibitory or blocking agents of molecular generating and/or inducing functions” (priority 1994, dated 2004).

Experiments:
[1] = Stability of solution under light; format: physicochemical; conditions: sealed glass tube, stocked under room light, 6 months after the synthesis
Source text: <Stability of Solution Under Light>

[2] = system: human blood coagulation and fibrin formation; assay: Human blood coagulation and fibrin formation, thromboelastgram and scanning electron microscopy; format: biochemical
Protocol: Effect of Yoshixol (4 μl) on human blood coagulation and fibrin formation (thrombin was added to fibrinogen) were investigated by thromboelastgram (Hellige GMBH, West Germany). Also, a magnitude of fibrin network which is formed at human blood coagulation was investigated by a scanning electron microscopy. Coagulation of human blood without treatment with Yoshixol was started within 1-2 min so that maximum level of coagulation occurred approximately within 15 min, followed by gradual decrease due to activation of fibrinolytic system. Immediately after thrombin is added on fibrinogen, viscosity of the sample started to increase, reached to a maximum level within 5-6 minutes. This maximum level was maintained for periods of 6 hours which was observed (referred FIG. 3a). However, when Yoshixol (4 μl) was added in 0.4 ml of whole blood or fibrinogen (160 mg/dl), onset time of blood coagulation and fibrin formation was delayed to 4-5 minutes and maximum aggregation time was occurred within 6-8 minutes. Maximum level of coagulation after the treatment was inhibited by 90% of control which level was maintained over 6 hours of investigation (referred FIG. 3b).

[3] = system: rejected reaction on heterogeneous skin implantation; assay: Heterogeneous skin implantation, donor skin pretreated with Yoshixol solution; format: in vivo, rabbit and dog
Source text: Changes in transplanted skin for 3 months were observed by macroscopically and microscopically, when a piece of skin with entire layer (diameter 3 centimeter meter) at a region of the back of rabbit was transplanted to the region of the back of adult mongrel dog as the entire layer transplantation, and when a piece of skin with entire layer (diameter 3 centimeter meter) at a region of the back of adult mongrel dog was transplanted to the region of the back of rabbit as the entire layer transplantation. Firstly, each piece of skin from rabbit or dog was treated with 5 ml of physiological saline with 10 μl of the test solution for 2 minutes so that each skin piece was transplanted to each recipient by the surgical suture. Two kinds of the test solution were prepared for the above treatment; as control solution, basal solution consists of 2 ml of polyoxyethylene (20) sorbitan monoolate 1 (Wakou Jyunyaku Co.) which is identical to Tween 80 (ICI Ltd.) and 88 ml of physiological saline, and as treated solution, 10 ml of Yoshixol was added in the basal solution. And, 10 μl of Yoshixol was treated directly on the transplanted wound for 3 days after implantation. […] Then, implantated wound of the recipient was cured with a self regenerated skin of each recipient after 3 months. On the other hand, when a piece of transplanted skin is dipped in the Yoshixol solution, the treated skin became to be soft and increases in it's thickness. And, a suture procedure with surgical needle was easily done. […] So that an inflammatory tissue reaction was not also found after 1 month. […] Simultaneously with the above, Yoshixol can inhibit complications of infections on the donor tissues or organs, and can improve an implantation effect. Moreover, by using an entire layer (diameter 3 centimeter meter) of rabbit skin, changes in a piece of the transplanted skin which was sutured to the back of the dog as the recipient were investigated over 3 months after the implantation. […] An outer layer of the transplanted skin was faded 3 month after the implantation likely as to strip a thin membrane.

[4] = system: synthesized dimers SEQ ID NO: 1 and SEQ ID NO: 2; assay: Molecular weight of new synthesized dimers with seven base pair, electrophoresis; format: biochemical; conditions: 2 μl dimer solution with 2 μl of Yoshixol, 20% gel electrophoresis
Protocol: DNA or RNA synthesis device (392-25 type, Perkin-Elmer Co.) was used and 7 base alignment (CTTCGGA) and (CTTCGGG) new synthesis dimer (SEQ ID NO: 1) (5′>CTTCGGACTTCGGA<3′) and (SEQ ID NO: 2) (5′>CTTCGGGCTTCGGG<3′) were synthesized. Then, an effect of Yoshixol on a change in molecular weight of the dimer was investigated. This pellet was dissolved on 50 μl of tris EDTA, and OD260 was measurement by 100 times attenuation so that concentration was turned into equality (5 ng/μl) by tris EDTA and distilled water. And, 4 μl of an adjusted synthesis dimer was labeled at 5′-terminal end of the dimer with 4 μl of ATP which was labeled by P32. In addition, after processing the dimer with 1 μl of polynucleokinase (TaKaRa, Tokyo) for 30 minutes by 37° C., the solution was heated at 70° C. for 5 minutes. Afterward, 65 μl of tris EDTA, 1 μl of glycogen and 190 μl of chilled ethanol were added and were mixed. And, it was centrifuged over 10 minute by 16,000 cpm. After taking the supernatant out, the pellet was made dry. Again, it was dissolved by 50 μl of tris EDTA and, 1 μl of the solution with radioactivity was mixed with urea (15 g), acrylamide (5.7 g), bisacrylamide (0.3 g), tris boric acid EDTA (3 ml), 10% ammoniumpersulfate (0.1 ml) and N, N, N, N-tetramethyldiamine (15 μl) to distilled water, so that the volume was made to 30 ml in total. […]

[5] = Acute and chronic toxicity, intravenous; format: in vivo, rabbit and dog
Protocol: In order to investigate a toxicity in vivo, the solution which was mixed 50 μl/Kg of Yoshixol with 1 ml of 20% glucose solution was administered intravenously in unanesthetized animals (rabbit and dog). […] Even though intravenous administration alone was done, it may be confirmed that it is safety.

thrombin = thrombin (Homo sapiens, UniProt P00734); assay: Composition of amino acids in thrombin; format: biochemical; set-up: 1 ml of human thrombin before and after treatment with Yoshixol; conditions: did not exist before treatment; Yoshixol 4 μl
Protocol: Changes in composition of amino acids were analyzed by use of 1 ml of human blood serum, 1 ml of human fibrinogen (concentration of 160 mg/dl), 1 ml of human thrombin before and after treatment with Yoshixol (4 μl). The total amino acids in the human blood serum which was treated with Yoshixol decreased by 41%. And, ratio of each composition was altered after the treatment so that as an example the concentration of phosphoserine increased about 20 times which level was from 7.2 picomole to 164.8 picomole.

[6] = rabbit and dog, 50 μl/Kg intravenously

C=C1CC(C)(C)C=CC1=O [Yoshixol, 4,4-dimethyl-6-methylene-2-cyclohexen-1-one]
Changes in coloring, viscosity and odor [1]: did not change
maximum aggregation time ([2]; Yoshixol 4 μl in 0.4 ml whole blood or fibrinogen (160 mg/dl)): 6 to 8 min
onset time of blood coagulation and fibrin formation ([2]; Yoshixol 4 μl in 0.4 ml whole blood or fibrinogen (160 mg/dl), untreated blood 1-2 min): 4 to 5 min
inhibition of maximum level of coagulation ([2]; Yoshixol 4 μl in 0.4 ml, level maintained over 6 hours): 90 % of control
rouleaux formation of erythrocyte and formation of fibrin net ([2]; morphological investigation, scanning electron microscopy): did not occur
desquamation and deciduation of transplanted skin ([3]; skin dipped 2 minutes in Yoshixol solution, 10 μl on wound for 3 days, 2 weeks after implantation): did not show a desquamation and deciduation
inflammation reaction of transplanted skin ([3]; skin dipped in Yoshixol solution, 10 μl on wound for 3 days): inhibited
transplanted wound ([3]; skin dipped in Yoshixol solution, after 1 month): cured to a level which could not find a boundary with a skin of recipient
change in molecular weight of the synthesized dimers versus without treatment [4]: did not differ
duration of transitional signs after the administration [5, 6]: 1 to 2 min
platelets [5, 6]: A change in platelets was not observed
pathological findings in the vital organs, macroscopically and microscopically ([5]; rabbit and dog, 50 μl/Kg intravenously, after 1 month): any pathological findings were not observed
abnormal behavior ([5]; rabbit and dog, 50 μl/Kg intravenously, observation period of 2 hours): an abnormal behavior was not found
abnormal behavior ([5]; rabbit and dog, 50 μl/Kg intravenously, observed over 1 month): any abnormal behavior did not found
white blood cells ([5]; rabbit and dog, 50 μl/Kg intravenously, recovery to normal level at 1 week): increased 3 days after administration
examination of blood, anemia ([5]; rabbit and dog, 50 μl/Kg intravenously, recovery to the normal after 1 week): hyperchromic anemia at the maximum level occurred 3 days after administration
respiration rate, blood pressure, heart rate and movements of an extremity after injection ([5]; unanesthetized rabbit and dog, 50 μl/Kg intravenously in 1 ml 20% glucose solution): transitional increase in respiration rate, increase in blood pressure and heart rate and active movements of an extremity (not convulsion)
glutamic acid, taurine, methionine and aminoisobutylic acid in thrombin sample (thrombin): produced newly
